Counter-ions that a name gives are not always drawn.
biological target: T1, human GluN1/GluN2B NMDA receptors (Homo sapiens, UniProt Q13224); experiment: Calcium flux (FLIPR) assay on cloned human NR1/GluN2B ion channels expressed in mammalian cells (standard and HTS variants); format: cell-based; settings: cells expressing human GluN1/GluN2B, glutamate and glycine co-agonists
T1 construct: expressed in transfected cells
Method: Effects of Test Articles on Cloned Human NR1/GuN2B Ion Channels Expressed in Mammalian Cells
NMDA receptors are ion channels that are highly permeable to Ca^2+ ions, rendering it possible to monitor NMDA receptor function using cell-based calcium flux assay. In this assay, co-agonists glutamate and glycine are added to cells heterologously expressing human GluN1/GluN2B NMDA receptors to initiate cellular Ca^2+ influx. The time course of the changes in intracellular calcium is measured using a fluorescent dye and a FLIPR (Fluorometric Imaging Plate Reader) device.
Twenty-four hours before measurements, the expression of the NMDA receptors in the stable cell line is induced with Tet-On inducible system in the presence of a non-selective NMDA receptor blocker. On the day of the experiment, cell culture media is carefully washed, and the cells are loaded with Calcium 5 Dye Kit (Molecular Devices) in dye loading buffer containing 137 mM NaCl, 4 mM KCl, 2 mM CaCl2, 0.5 mM MgCl2 (standard assay) or 1.5 mM MgCl2 (HTS assay), 10 mM HEPES and 5 mM D-glucose; pH 7.4. After 1 h incubation at the room temperature, the dye is washed away with the assay buffer (137 mM NaCl (standard assay) or 150 mM (HTS assay), 4 mM KCl (standard assay) or 3 mM (HTS assay), 2 mM CaCl2), 0.01 mM EDTA, 10 mM HEPES and 5 mM D-glucose; pH 7.4) In the FLIPR TETRA reader, various concentrations of the test compounds are added to the cells for 5 min while fluorescence is monitored to detect potential agonist activity. Next, co-agonists, glutamate and glycine are added for another 5 minutes. The concentration of glutamate corresponding to ˜EC40 (standard assay) or EC40 (HTS assay) is used to maximize the assay's signal window and ability to detect NMDA receptor antagonists and negative allosteric modulators. A saturating concentration (10 μM) of glycine is also present in the assay. A non-selective NMDA receptor antagonist, (+)MK-801 is used as a positive control for antagonist activity. The fluorescent signal in the presence of test compounds is quantified and normalized to the signal defined by the appropriate control wells.

T1 sequence (Q13224 27-1484, other chains not shown): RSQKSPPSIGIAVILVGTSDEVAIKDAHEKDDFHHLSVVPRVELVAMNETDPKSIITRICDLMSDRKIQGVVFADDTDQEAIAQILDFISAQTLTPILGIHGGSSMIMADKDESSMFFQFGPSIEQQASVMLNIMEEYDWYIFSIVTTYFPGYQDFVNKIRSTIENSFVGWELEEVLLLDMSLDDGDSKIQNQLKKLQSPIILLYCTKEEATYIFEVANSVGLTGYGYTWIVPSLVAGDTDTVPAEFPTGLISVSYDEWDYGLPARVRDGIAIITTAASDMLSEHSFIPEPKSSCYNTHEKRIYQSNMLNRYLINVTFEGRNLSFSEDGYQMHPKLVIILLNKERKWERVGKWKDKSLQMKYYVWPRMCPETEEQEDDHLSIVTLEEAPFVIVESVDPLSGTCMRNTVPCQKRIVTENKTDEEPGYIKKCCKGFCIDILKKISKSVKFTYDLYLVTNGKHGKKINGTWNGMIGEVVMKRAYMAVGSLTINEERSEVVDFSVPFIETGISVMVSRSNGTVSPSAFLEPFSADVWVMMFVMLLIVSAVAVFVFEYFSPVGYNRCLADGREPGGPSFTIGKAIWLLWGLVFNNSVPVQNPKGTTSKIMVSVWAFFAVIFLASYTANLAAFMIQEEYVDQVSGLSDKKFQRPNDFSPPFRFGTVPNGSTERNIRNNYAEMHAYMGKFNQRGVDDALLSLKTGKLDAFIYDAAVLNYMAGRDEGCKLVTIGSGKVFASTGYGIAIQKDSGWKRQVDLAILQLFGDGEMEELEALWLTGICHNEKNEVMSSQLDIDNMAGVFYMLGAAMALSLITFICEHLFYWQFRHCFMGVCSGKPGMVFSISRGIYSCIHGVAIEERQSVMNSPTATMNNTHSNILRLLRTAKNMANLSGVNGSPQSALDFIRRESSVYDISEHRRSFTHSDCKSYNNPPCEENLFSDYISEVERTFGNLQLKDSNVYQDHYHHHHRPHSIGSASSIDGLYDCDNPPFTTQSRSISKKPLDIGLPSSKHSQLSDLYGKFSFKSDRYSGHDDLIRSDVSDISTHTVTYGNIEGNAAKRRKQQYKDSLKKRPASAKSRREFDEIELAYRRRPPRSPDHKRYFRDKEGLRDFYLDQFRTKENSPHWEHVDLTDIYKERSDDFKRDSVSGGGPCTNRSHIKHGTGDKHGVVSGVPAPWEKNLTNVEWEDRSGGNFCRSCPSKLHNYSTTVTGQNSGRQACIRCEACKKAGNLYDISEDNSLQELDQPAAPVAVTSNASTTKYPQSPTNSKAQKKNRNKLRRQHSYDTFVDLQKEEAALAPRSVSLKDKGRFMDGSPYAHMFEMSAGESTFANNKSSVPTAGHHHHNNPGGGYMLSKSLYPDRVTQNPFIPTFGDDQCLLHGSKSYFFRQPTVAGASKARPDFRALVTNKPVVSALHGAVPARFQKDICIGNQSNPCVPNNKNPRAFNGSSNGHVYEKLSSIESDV

Compound	IC50 [nM]
Cc1cccc(-c2cnc3cnn(Cc4cncc(F)c4)c3c2)c1 [Example 146, 1-[(5-Fluoro-3-pyridyl)methyl]-6-(m-tolyl)pyrazolo[4,3-b]pyridine]	9
COc1cncc(Cn2ncc3ncc(-c4ccc(Cl)c(C(F)F)c4)cc32)c1 [Example 232, 6-[4-chloro-3-(Difluoromethyl)phenyl]-1-[(5-methoxy-3-pyridyl)methyl]pyrazolo[4,3-b]pyridine]	40
Cc1cnc(Cn2ncc3ncc(-c4ccc(F)c(OC(F)F)c4)cc32)o1 [Example 61, 2-[[6-[3-(Difluoromethoxy)-4-fluoro-phenyl]pyrazolo[4,3-b]pyridin-1-yl]methyl]-5-methyl-oxazole]	160
COc1ccc(Cn2ncc3ncc(-c4ccc(F)c(OC(F)F)c4)cc32)cn1 [Example 227, 6-[3-(Difluoromethoxy)-4-fluoro-phenyl]-1-[(6-methoxy-3-pyridyl)methyl]pyrazolo[4,3-b]pyridine]	1620
FC(F)(F)c1cccc(-c2cnc3cnn(Cc4ccccn4)c3c2)c1 [Example 162, 1-(2-Pyridylmethyl)-6-[3-(trifluoromethyl)phenyl]pyrazolo[4,3-b]pyridine]	930
Cc1cccc(-c2cnc3cnn(Cc4cccnn4)c3c2)c1 [Example 255, 6-(m-Tolyl)-1-(pyridazin-3-ylmethyl)pyrazolo[4,3-b]pyridine]	329
Cc1noc(Cn2ncc3ncc(-c4ccc(F)c(C(F)F)c4)cc32)n1 [Example 95, 5-[[6-[3-(Difluoromethyl)-4-fluoro-phenyl]pyrazolo[4,3-b]pyridin-1-yl]methyl]-3-methyl-1,2,4-oxadiazole]	40
Cc1cc(Cn2ncc3ncc(-c4ccc(F)c(OC(F)F)c4)cc32)no1 [Example 59, 3-[[6-[3-(Difluoromethoxy)-4-fluoro-phenyl]pyrazolo[4,3-b]pyridin-1-yl]methyl]-5-methyl-isoxazole]	61
Nc1nnc(Cn2ncc3ncc(-c4ccc(F)c(C(F)F)c4)cc32)s1 [Example 16, 5-[[6-[3-(difluoromethyl)-4-fluoro-phenyl]pyrazolo[4,3-b]pyridin-1-yl]methyl]-1,3,4-thiadiazol-2-amine]	1050
Cc1nnc(Cn2nc(F)c3ncc(-c4ccc(Cl)c(OC(F)F)c4)cc32)o1 [Example 117, 2-[[6-[4-Chloro-3-(difluoromethoxy)phenyl]-3-fluoro-pyrazolo[4,3-b]pyridin-1-yl]methyl]-5-methyl-1,3,4-oxadiazole]	655
Cc1nnc(Cn2nc(F)c3ncc(-c4ccc(Cl)c(C(F)F)c4)cc32)o1 [Example 107, 2-[[6-[4-Chloro-3-(difluoromethyl)phenyl]-3-fluoro-pyrazolo[4,3-b]pyridin-1-yl]methyl]-5-methyl-1,3,4-oxadiazole]	347
Cc1ncc(Cn2ncc3ncc(-c4ccc(F)c(C)c4F)cc32)o1 [Example 63, 5-[[6-(2,4-Difluoro-3-methyl-phenyl)pyrazolo[4,3-b]pyridin-1-yl]methyl]-2-methyl-oxazole]	268
CC(=O)Nc1nnc(Cn2ncc3ncc(-c4ccc(F)c(OC(F)F)c4)cc32)s1 [Example 19, N-(5-((6-(3-(Difluoromethoxy)-4-fluorophenyl)-1H-pyrazolo[4,3-b]pyridin-1-yl)methyl)-1,3,4-thiadiazol-2-yl)acetamide]	> 2990
Cc1cc(-c2cnc3cnn(Cc4cnccc4C)c3c2)ccc1F [Example 181, 6-(4-Fluoro-3-methyl-phenyl)-1-[(4-methyl-3-pyridyl)methyl]pyrazolo[4,3-b]pyridine trifluoroacetate salt]	113
FC(F)(F)c1cccc(-c2cnc3cnn(Cc4cncc(Br)c4)c3c2)c1 [Example 2, 1-[(5-Bromo-3-pyridyl)methyl]-6-[3-(trifluoromethyl)phenyl]pyrazolo[4,3-b]pyridine]	329
Fc1ccc(-c2cnc3cnn(Cc4ccncn4)c3c2)cc1OC(F)F [Example 271, 6-[3-(Difluoromethoxy)-4-fluoro-phenyl]-1-(pyrimidin-4-ylmethyl)pyrazolo[4,3-b]pyridine]	401
Fc1cccc(Cn2ncc3ncc(-c4cccc(C(F)(F)F)c4)cc32)c1 [Example 22, 1-[(3-Fluorophenyl)methyl]-6-[3-(trifluoromethyl)phenyl]pyrazolo[4,3-b]pyridine hydrochloride salt]	1820
Fc1ccc(-c2cnc3cnn(Cc4nnc(-c5ccccc5)o4)c3c2)cc1C(F)F [Example 103, 2-[[6-[3-(Difluoromethyl)-4-fluoro-phenyl]pyrazolo[4,3-b]pyridin-1-yl]methyl]-5-phenyl-1,3,4-oxadiazole]	> 2990

Continued, values first:

IC50 [nM]	Compound
367	Cc1nnc(Cn2nc(F)c3ncc(-c4ccc(F)c(C(C)(F)F)c4)cc32)o1 [Example 105, 2-[[6-[3-(1,1-Difluoroethyl)-4-fluoro-phenyl]-3-fluoro-pyrazolo[4,3-b]pyridin-1-yl]methyl]-5-methyl-1,3,4-oxadiazole]
200	CC(F)(F)c1cc(-c2cnc3cnn(Cc4cncc(Cl)c4)c3c2)ccc1Cl [Example 237, 6-[4-Chloro-3-(1,1-difluoroethyl)phenyl]-1-[(5-chloro-3-pyridyl)methyl]pyrazolo[4,3-b]pyridine]
26	Cc1cc(-c2cnc3c(F)nn(Cc4cccnc4)c3c2)ccc1F [Example 178, 3-Fluoro-6-(4-fluoro-3-methyl-phenyl)-1-(3-pyridylmethyl)pyrazolo[4,3-b]pyridine]
57	Cc1nnc(Cn2ncc3ncc(-c4ccc(Cl)c(C(F)F)c4)cc32)s1 [Example 131, 2-[[6-[4-Chloro-3-(difluoromethyl)phenyl]pyrazolo[4,3-b]pyridin-1-yl]methyl]-5-methyl-1,3,4-thiadiazole]
89	Cc1ccc(-c2cnc3cnn(Cc4cccnc4)c3c2)s1 [Example 139, 6-(5-Methyl-2-thienyl)-1-(3-pyridylmethyl)pyrazolo[4,3-b]pyridine]
307	COc1ncccc1Cn1ncc2ncc(-c3ccc(F)c(C(F)F)c3)cc21 [Example 206, 6-[3-(Difluoromethyl)-4-fluoro-phenyl]-1-[(2-methoxy-3-pyridyl)methyl]pyrazolo[4,3-b]pyridine]
48	COc1cncc(Cn2ncc3ncc(-c4ccc(F)c(OC(F)F)c4)cc32)c1 [Example 230, 6-[3-(Difluoromethoxy)-4-fluoro-phenyl]-1-[(5-methoxy-3-pyridyl)methyl]pyrazolo[4,3-b]pyridine]
20	Fc1ccc(-c2cnc3cnn(Cc4cncc(C(F)F)c4)c3c2)cc1C(F)F [Example 209, 6-[3-(Difluoromethyl)-4-fluoro-phenyl]-1-[[5-(difluoromethyl)-3-pyridyl]methyl]pyrazolo[4,3-b]pyridine]
507	Cc1cc(-c2cnc3cnn(Cc4cccnc4C)c3c2)ccc1F [Example 179, 6-(4-Fluoro-3-methyl-phenyl)-1-[(2-methyl-3-pyridyl)methyl]pyrazolo[4,3-b]pyridine]
285	Cc1nc(Cn2ncc3ncc(-c4ccc(F)c(C(F)F)c4)cc32)co1 [Example 55, 4-[[6-[3-(Difluoromethyl)-4-fluoro-phenyl]pyrazolo[4,3-b]pyridin-1-yl]methyl]-2-methyl-oxazole]
112	Cc1cncc(Cn2ncc3ncc(-c4cccc(C(C)(F)F)c4)cc32)c1 [Example 160, 6-[3-(1,1-Difluoroethyl)phenyl]-1-[(5-methyl-3-pyridyl)methyl]pyrazolo[4,3-b]pyridine]
25	Fc1cncc(Cn2ncc3ncc(-c4cc(F)c(F)c(F)c4)cc32)c1 [Example 251, 1-[(5-Fluoro-3-pyridyl)methyl]-6-(3,4,5-trifluorophenyl)pyrazolo[4,3-b]pyridine]
3830	CCc1nnc(Cn2ncc3ncc(-c4ccc(F)c(C(F)F)c4)cc32)n1C [Example 76, 6-[3-(Difluoromethyl)-4-fluoro-phenyl]-1-[(5-ethyl-4-methyl-1,2,4-triazol-3-yl)methyl]pyrazolo[4,3-b]pyridine]
37	Cc1nnc(Cn2ncc3ncc(-c4ccc(F)c(C)c4)cc32)o1 [Example 89, 2-[[6-(4-Fluoro-3-methyl-phenyl)pyrazolo[4,3-b]pyridin-1-yl]methyl]-5-methyl-1,3,4-oxadiazole]
559	Cc1ncc(Cn2ncc3ncc(-c4ccc(F)c(OC(F)F)c4)cc32)o1 [Example 60, 5-[[6-[3-(Difluoromethoxy)-4-fluoro-phenyl]pyrazolo[4,3-b]pyridin-1-yl]methyl]-2-methyl-oxazole]
65	CC(F)(F)c1cc(-c2cnc3cnn(Cc4cncnc4)c3c2)ccc1F [Example 277, 6-[3-(1,1-Difluoroethyl)-4-fluoro-phenyl]-1-(pyrimidin-5-ylmethyl)pyrazolo[4,3-b]pyridine]

Reference: patent US11530210B2, “Substituted heteroaromatic pyrazolo-pyridines and their use as GLUN2B receptor modulators” (JANSSEN PHARMACEUTICA NV, priority 2019, dated 2022)
